ChEMBL document CHEMBL1123575, “In search of the digitalis replacement” (J Med Chem, 1987)
Values joined by “and” are separate entries in the source; they are usually repeats but may differ in a detail not shown here. Identical values can stand only once.

Key:
[1] = biological target: Beta-1 adrenergic receptor (Homo sapiens) (UniProt P08588)
Description: Positive inotropic effects by direct or indirect beta-1 adrenergic receptor activation.

[2] = biological target: T1, Phosphodiesterase; PDE3 & PDE4 (Homo sapiens) (UniProt P27815+Q14432+Q08499+Q07343+Q13370+Q08493); assay: Inhibition of cAMP Phosphodiesterase enzyme.; assay type: protein assay
[3] = biological target: Beta-1 adrenergic receptor (Homo sapiens) (UniProt P08588); assay: Compound was tested for its inotropic effect by activation of beta-1 adrenergic receptor directly or indirectly; activity values are 70,71
[4] = biological target: T1, Phosphodiesterase; PDE3 & PDE4 (Homo sapiens); assay: Compound was evaluated for its inotropic activity by the inhibition of cAMP Phosphodiesterase enzyme; assay type: protein assay
[5] = biological target: Beta-1 adrenergic receptor (Homo sapiens) (UniProt P08588); assay: Compound was tested for its inotropic effect by activation of beta-1 adrenergic receptor directly or indirectly; activity values are 73,75
[6] = Compound was evaluated for its inotropic activity by its ability to increase Myofibrillar Ca++ sensitivity.; assay type: functional

Beta-1 adrenergic receptor (Homo sapiens), sequence (P08588 whole entry, looked up): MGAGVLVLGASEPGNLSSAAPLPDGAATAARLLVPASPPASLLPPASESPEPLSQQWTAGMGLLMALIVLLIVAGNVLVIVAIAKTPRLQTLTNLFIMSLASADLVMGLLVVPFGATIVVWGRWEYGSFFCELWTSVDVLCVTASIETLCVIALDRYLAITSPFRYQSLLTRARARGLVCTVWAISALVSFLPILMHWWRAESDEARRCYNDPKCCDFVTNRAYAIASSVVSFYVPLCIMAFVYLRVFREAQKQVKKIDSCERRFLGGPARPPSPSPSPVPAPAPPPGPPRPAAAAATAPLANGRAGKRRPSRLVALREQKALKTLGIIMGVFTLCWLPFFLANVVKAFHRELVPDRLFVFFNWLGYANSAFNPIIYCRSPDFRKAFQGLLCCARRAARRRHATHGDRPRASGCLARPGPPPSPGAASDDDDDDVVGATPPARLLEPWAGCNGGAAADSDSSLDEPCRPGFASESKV

Inotropic effect [1]	PDE inhibition [2]	SMILES	other results
–	68	CCc1[nH]c(=O)[nH]c1C(=O)c1ccncc1	Inotropic effect [3]: 71
57	–	Nc1cc(-c2ccncc2)c[nH]c1=O	PDE inhibition [4]: 57 and 56 and 24
26	–	CC(CCc1ccc(O)cc1)NCCc1ccc(O)c(O)c1 (stereo not given)	–
–	91	COc1ccc2[nH]c(=O)nc(C)c2c1OC	–
66	–	Cc1nc(=O)c(C#N)c(NCc2cccnc2)[nH]1	PDE inhibition [4]: 64 and 65
–	72	CSc1ccc(C(=O)c2[nH]c(=O)[nH]c2C)cc1	Inotropic effect [5]: 75
–	63	CC(=O)Nc1ccc(-c2cnc(O)cn2)cc1	–
–	83	O=C1CCC(c2ccc3c(c2)NC(=O)CC3)=NN1	–

Further lines, the compound ahead of its results:

SMILES	Inotropic effect [1]	PDE inhibition [2]	other results
Oc1ccc(CCNCCCCCCNCCc2ccccc2)cc1O	36	–	–
CN(C(=O)CCCOc1ccc2c(c1)CN1CC(=O)NC1=N2)C1CCCCC1	–	90	–
CCCCNC(=O)NC1CCN(c2ncnc3cc(OC)c(OC)cc23)CC1	85	84	–
CC(C)NC[C@H](O)COc1ccc(O)cc1	35 and 34	–	–
CNCCc1ccc(OC(=O)C(C)C)c(OC(=O)C(C)C)c1	38	–	–
COc1ccc(C(=O)N2CCN(c3ccc4c(c3)CCC(=O)N4)CC2)cc1OC	–	87	–
COc1ccc(-c2nc3cc(C4=NNC(=O)CC4C)ccc3[nH]2)cc1 (stereo not given)	82	–	PDE inhibition [4]: 81 and 80
CCc1nc(O)ncc1-c1ccc(O)cc1	67	67	–
CC1CC(O)=NN=C1c1ccc(-n2ccnc2)cc1 (stereo not given)	–	76	–
CCNC(=O)OC1CCN(c2nncc3cc(OC)c(OC)cc23)CC1	86	86	–
O=C1CCC(c2ccc(-n3ccnc3)cc2)=NN1	78	76	–
Cc1nc(O)c(N)cc1-c1ccccc1	–	62	Mechanistic reference [6]: 62
C[C@H](CCc1ccc(O)cc1)NC[C@H](O)c1ccc(O)cc1	39	–	–
OC(CNCCC1c2ccccc2Oc2ccccc21)COc1ccccc1 (stereo not given)	45 and 44	–	–
Cc1[nH]c(=O)c(C#N)cc1-c1ccncc1	–	58	–
C[C@@H]1C(=O)NC2=Nc3cccc(Cl)c3CN21	89	88	–
